Columns and labels:
[1] = biological target: T1, Histamine H3 receptor (Homo sapiens, UniProt Q9Y5N1); experiment: Displacement of [3H]SMT from human histamine H3 receptor
[2] = biological target: T1, Histamine H3 receptor; experiment: Ratio of dispyrin Ki to compound Ki for human histamine H3 receptor
[3] = biological target: T1, Histamine H3 receptor; experiment: Ratio of dispyrin IC50 to compound IC50 for human histamine H3 receptor

T1 sequence (Q9Y5N1 whole entry): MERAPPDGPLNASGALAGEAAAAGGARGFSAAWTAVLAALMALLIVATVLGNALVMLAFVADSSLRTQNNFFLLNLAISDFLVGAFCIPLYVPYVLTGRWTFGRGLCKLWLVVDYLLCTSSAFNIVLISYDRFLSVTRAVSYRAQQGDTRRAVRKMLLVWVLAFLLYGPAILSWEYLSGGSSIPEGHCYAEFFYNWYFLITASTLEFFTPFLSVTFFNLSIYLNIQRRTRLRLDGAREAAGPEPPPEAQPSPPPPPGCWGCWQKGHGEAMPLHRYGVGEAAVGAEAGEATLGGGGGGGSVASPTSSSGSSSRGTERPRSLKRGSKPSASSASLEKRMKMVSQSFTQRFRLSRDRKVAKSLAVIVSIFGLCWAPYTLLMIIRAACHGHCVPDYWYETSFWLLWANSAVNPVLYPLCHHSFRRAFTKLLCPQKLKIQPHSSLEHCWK

Structure (SMILES)	IC50 [1] [nM]	Ki [1] [nM]	Ratio Ki [2]	Ratio IC50 [3]
CN1CCCC(COc2ccc(CCNC(=O)c3cc(Br)c[nH]3)cc2Br)C1 (centres undefined)	2940	1330		
Cn1cccc1C(=O)NCCc1ccc(OCCN2CCCC2)c(Br)c1	310			
CN(C)CCCOc1ccc(CCNC(=O)c2ccc[nH]2)cc1Br		1360		
CN(C)CCOc1ccc(CCNC(=O)c2ccc[nH]2)cc1Br		1550		
CN1CCCC(COc2ccc(CCNC(=O)c3ccc[nH]3)cc2Br)C1 (centres undefined)		1520		
O=C(NCCc1ccc(OCCN2CCCC2)c(Br)c1)c1nccs1	70	30	33	33
O=C(NCCc1ccc(OCCN2CCC(F)C2)c(Br)c1)c1cc(Br)cs1 (single isomer, unassigned; enantiomer 1)	2110	1100		
CN(C)CCCOc1ccc(CCNC(=O)c2ccc(Br)o2)cc1Br		2290		
O=C(NCCc1ccc(OCCN2CCC(F)C2)c(Br)c1)c1cc(Br)cs1 (stereo in doubt; 18d)	2520	1150		
O=C(NCCc1ccc(OCCN2CCCC2)c(Br)c1)c1cncs1	260	120		
Cn1cccc1C(=O)NCCc1ccc(OCCN2CCOCC2)c(Br)c1	39600	17600		
CN1CCCC(COc2ccc(CCNC(=O)c3ccc(Br)o3)cc2Br)C1 (centres undefined)	4560			
CN1CCCC(COc2ccc(CCNC(=O)c3cccn3C)cc2Br)C1 (centres undefined)	3620	1650		
CC1CCCN1CCOc1ccc(CCNC(=O)c2cc(Br)cs2)cc1Br (single isomer, unassigned; enantiomer 1)	710	310		
CN(C)CCOc1ccc(CCNC(=O)c2cc(Br)cs2)cc1Br	1520			
O=C(NCCc1ccc(OCCN2CCOCC2)c(Br)c1)c1ccc(Br)o1	73200	32500		
CC1CCCN1CCOc1ccc(CCNC(=O)c2cc(Br)cs2)cc1Br (single isomer, unassigned; enantiomer 2)	750	330		
O=C(NCCc1ccc(OCCN2CCCC2)c(Br)c1)c1cc(Br)cs1			13	13
O=C(NCCc1ccc(OCCN2CCCC2)c(Br)c1)c1cnco1	80	30		
O=C(NCCc1ccc(OCCN2CCOCC2)c(Br)c1)c1cc(Br)cs1	30400	13500		
CN1CCCC(COc2ccc(CCNC(=O)c3cc(Br)cs3)cc2Br)C1 (centres undefined)	3730	1250		
CN(C)CCOc1ccc(CCNC(=O)c2cccn2C)cc1Br		2130		
O=C(NCCc1ccc(OCCN2CCOCC2)c(Br)c1)c1cc(Br)c[nH]1	29100	12900		
O=C(NCCc1ccc(OCCN2CCOCC2)c(Br)c1)c1ccc[nH]1	59200	26400		
CN(C)CCCOc1ccc(CCNC(=O)c2cccn2C)cc1Br	3990	1760		

From ChEMBL document CHEMBL1158433, “A novel class of H3 antagonists derived from the natural product guided synthesis of unnatural analogs of the marine bromopyrrole alkaloid dispyrin” (Bioorg Med Chem Lett, 2009)
